This passage reports EC50 results from ChEMBL document CHEMBL5725356, “Anti-fibrotic pyridinones” (2017).

This assay is described as follows: ET-1 Assay: Fibroblasts (primary human lung and dermal, HFL-1, 3T3 etc) are seeded in 96-well plates at ~15000 cells/well and serum starved for 0-48 hours. After media exchange, compounds serially diluted in DMSO are added to the cells. After a brief incubation of ~30 min, stimulants (TGFb, serum, LPA etc) are added followed by further incubation for 16-48 hours. Media is then harvested and stored frozen in plate format for later endothelin-1 (ET-1) determination by ELISA. Toxicity measurements are made using the ATPlite kit (Perkin-Elmer). ET-1 is quantified using an ELISA kit (R&D Systems). The amount of ET-1 produced in the assay wells are back-calculated using the ELISA standard. The ability of a compound to inhibit ET-1 production is typically analyzed by fitting dose-response curves to a 4-parameter logistic function to obtain an EC50 value. The settings on record: HFL1.
Take `CCOc1ccc(-n2cc(-c3ccccc3)ccc2=O)c(C)c1`: the EC50 entry was “in the range around 125 µM”.

Take `CCn1c(=O)oc2c(-c3cn(-c4ccc(OC(F)(F)F)cc4)c(=O)cc3C)cccc21`: the EC50 is > 200 µM.

Regarding `O=c1c2[nH]ccc2c(-c2cn[nH]c2)cn1-c1ccc(OC(F)(F)F)cc1`, the EC50 was < 50 µM.

On to `Cn1cc(-c2cn(-c3ccc(OC(F)(F)F)cc3)c(=O)cc2NCc2cccnc2)cn1`, for which the EC50 result was “in the range around 125 µM”.

For `O=c1cc(O)c(-c2ccc(F)cc2)cn1-c1ccc(OC(F)(F)F)cc1`, the EC50 result is “in the range around 125 µM”.

On to `CCn1cnc2c(-c3cn[nH]c3)cn(-c3ccc(OC(F)(F)F)cc3)c(=O)c21`, for which the concentration giving a half-maximal response (EC50) was < 50 µM.

`Cn1cc(-c2c[nH]c(=O)cc2NCc2ncccn2)cn1`: the EC50 was < 50 µM.

In the case of `O=c1c2[nH]nnc2c(-c2cn[nH]c2)cn1-c1ccc(OC(F)(F)F)cc1`, the EC50 entry is “in the range around 125 µM”.

Turning to `O=c1cc(Cl)c(-c2ccc(F)cc2)cn1-c1ccc(OC(F)(F)F)cc1`, the EC50 is < 50 µM.

As to `O=c1ccc(-c2ccccc2)cn1-c1cncnc1`, the concentration giving a half-maximal response (EC50) was > 200 µM.

Consider `COc1cc(=O)n(-c2ccc(OC(F)(F)F)cc2)cc1-c1ccc(F)cc1`, for which the EC50 is > 200 µM.

With `COc1cc(-n2cc(-c3cnn(C)c3)c(C)cc2=O)cc(OC)c1OC`, the EC50 is > 200 µM.

Consider `Cn1cc(-c2cn(-c3ccc(OC(F)(F)F)cc3)c(=O)cc2Oc2ccc(F)cc2)cn1`, for which the EC50 is < 50 µM.

Take `Cc1cc(=O)n(-c2ccc(OC(F)(F)F)cc2)cc1-c1ccnnc1`: the EC50 result is “in the range around 125 µM”.

On to `O=C1COc2c(-c3ccc(F)cc3)cn(-c3ccc(OC(F)(F)F)cc3)c(=O)c2N1Cc1ccccc1`, for which the concentration giving a half-maximal response (EC50) was > 200 µM.

In the case of `O=c1cc(OCc2ccccc2)c(-c2ccc(F)cc2)cn1-c1ccc(OC(F)(F)F)cc1`, the EC50 is > 200 µM.

`Cn1cc(-c2cn(-c3ccc(OC(F)(F)F)cc3)c(=O)c3[nH]ncc23)cn1`: the EC50 was > 200 µM.

Regarding `Cc1cc(=O)n(-c2ccc(OC(F)(F)F)cc2)cc1-n1ccnc1`, the EC50 is > 200 µM.

As to `Cc1cc(=O)n(-c2cccc(C(F)(F)F)c2)cc1-c1cnn(C)c1`, the EC50 was > 200 µM.

`CN1CCC(Oc2cc(=O)n(-c3ccc(OC(F)(F)F)cc3)cc2-c2ccc(F)cc2)CC1`: the EC50 was < 50 µM.

In the case of `Cc1cc(=O)n(-c2ccc(OC(F)(F)F)cc2)cc1-c1ccccc1F`, the EC50 is < 50 µM.

In the case of `Cc1nc2c(=O)n(-c3ccc(OC(F)(F)F)cc3)cc(-c3ccc(F)cc3)c2o1`, the half-maximal effective concentration (EC50) was > 200 µM.

On to `O=c1ccc(C2CCCC2)cn1-c1ccccc1`, for which the EC50 result was “in the range around 125 µM”.

As to `COc1ccc(-c2ccc(=O)n(-c3ccccc3F)c2)cc1`, the EC50 was > 200 µM.

For `Cc1cc(=O)n(-c2ccc(OC(F)(F)F)cc2)cc1-c1ccc2ccn(C)c2c1`, the EC50 is < 50 µM.

Take `CCCNC(=O)Nc1cc(=O)n(-c2ccc(OC(F)(F)F)cc2)cc1-c1ccc(F)cc1`: the EC50 was > 200 µM.

Turning to `O=c1c2[nH]ccc2c(-c2ccc(F)cc2)cn1-c1ccc(OC(F)(F)F)cc1`, the EC50 is < 50 µM.

`Cc1cc(=O)n(-c2ccc(OC(F)(F)F)cc2)cc1-c1ccc2c(c1)OCC(=O)N2`: the EC50 result is “in the range around 125 µM”.

Turning to `CCOc1ccc(Oc2cc(=O)n(-c3ccc(OC(F)(F)F)cc3)cc2-c2cnn(C)c2)cc1C#N`, the EC50 is < 50 µM.

As for `O=c1c2nccnc2c(-c2cn[nH]c2)cn1-c1ccc(Cl)cc1`, the EC50 was > 200 µM.

As to `CCOc1ccc(-n2cc(Br)c3nccnc3c2=O)c(C)c1`, the EC50 is < 50 µM.

Consider `Cc1cc(=O)n(-c2ccc(OC(F)(F)F)cc2)cc1-c1cccc2scnc12`, for which the EC50 was > 200 µM.

Consider `Cc1ccc(=O)n(-c2cc(F)c(F)c(F)c2)c1`, for which the EC50 was > 200 µM.

Take `Cn1cc(-c2cn(-c3ccc(OC(F)(F)F)cc3)c(=O)c3c2CCCC3)cn1`: the concentration for a half-maximal effect (EC50) is < 50 µM.

Turning to `CCn1nc2c(-c3cnn(C)c3)cn(-c3ccc(OC(F)(F)F)cc3)c(=O)c2n1`, the EC50 was < 50 µM.

Take `Cn1cc(-c2cn(-c3ccc(OC(F)(F)F)cc3)c(=O)c3c2nnn3CCF)cn1`: the concentration for a half-maximal effect (EC50) entry is “in the range around 125 µM”.

On to `C#Cc1ccc(=O)n(-c2ccccc2)c1`, for which the half-maximal effective concentration (EC50) is > 200 µM.

Regarding `Cc1n[nH]c(C)c1-c1ccc(=O)n(-c2ccc(OC(C)C)cc2)c1`, the EC50 result is “in the range around 125 µM”.

As for `Cc1cc(=O)n(-c2ccc(OC(F)(F)F)cc2)cc1-c1ccc2ncsc2c1`, the EC50 result was “in the range around 125 µM”.

Consider `CCOc1ccc(-n2cc(-c3ccnnc3)c3nn(CC)nc3c2=O)c(C)c1`, for which the EC50 is < 50 µM.

On to `Cc1cc(=O)n(-c2ccccc2)cc1-c1ccccc1`, for which the EC50 entry was “in the range around 125 µM”.

In the case of `CCn1c(=O)oc2ccc(-c3cn(-c4ccc(OC(F)(F)F)cc4)c(=O)cc3C)cc21`, the EC50 was > 200 µM.

As to `Cc1cc(=O)n(-c2ccc(Cl)cc2)cc1-c1ccc2scnc2c1`, the 50% effective concentration (EC50) entry is “in the range around 125 µM”.

As to `Cn1cc(-c2cn(-c3ccc(OC(F)(F)F)cc3)c(=O)cc2OCc2ccccc2)cn1`, the EC50 is > 200 µM.

On to `COc1ccc(-c2ccc(=O)n(-c3cncnc3)c2)cc1`, for which the EC50 is > 200 µM.

As for `O=c1ccc(-c2ccccc2)cn1-c1ccccc1Cl`, the EC50 entry was “in the range around 125 µM”.

Take `Cc1cc(-c2cnn(C)c2)cn(-c2ccc(OC(F)(F)F)cc2)c1=O`: the EC50 result is “in the range around 125 µM”.

As to `CCOC(=O)Nc1cc(=O)n(-c2ccc(OC(F)(F)F)cc2)cc1-c1ccc(F)cc1`, the EC50 was > 200 µM.

As for `Cc1cc(=O)n(-c2cccc(C(N)=O)c2)cc1-c1ccc(F)cc1`, the EC50 is > 200 µM.

Take `Cc1cc(=O)n(-c2ccc(OC(F)(F)F)cc2)cc1-c1ccc2c(ccn2C)c1`: the EC50 was > 200 µM.

Turning to `Cn1cc(-c2cn(-c3ccc(OC(F)(F)F)cc3)c(=O)cc2N2CCc3ccccc3C2)cn1`, the EC50 result is “in the range around 125 µM”.

Regarding `Cc1cc(=O)n(-c2cccc3c2OCCO3)cc1-c1cnn(C)c1`, the EC50 result was “in the range around 125 µM”.

`CCOc1ccc(-n2cc(-c3ccc(F)cc3)c3nccnc3c2=O)c(C)c1`: the EC50 is > 200 µM.

In the case of `Cc1nc2c(=O)n(-c3ccc(OC(F)(F)F)cc3)cc(-c3cnn(C)c3)c2o1`, the EC50 is < 50 µM.

For the compound `O=c1c2c(c(-c3cn[nH]c3)cn1-c1ccc(OC(F)(F)F)cc1)CCCC2`, the EC50 entry was “in the range around 125 µM”.

On to `Cc1cc(=O)n(-c2cccc(N)c2)cc1-c1ccc(F)cc1`, for which the EC50 entry is “in the range around 125 µM”.

`CCn1cnc2c(-c3cnn(C(C)C)c3)cn(-c3ccc(OC(F)(F)F)cc3)c(=O)c21`: the EC50 was < 50 µM.

For the compound `CCn1ccc2c(-c3cnn(CCO)c3)cn(-c3ccc(OC(F)(F)F)cc3)c(=O)c21`, the EC50 was < 50 µM.

As to `O=C(NCc1ccccc1)Nc1cc(=O)n(-c2ccc(OC(F)(F)F)cc2)cc1-c1ccc(F)cc1`, the EC50 is > 200 µM.

For `O=C(NCc1ccccc1)c1cc(=O)n(-c2ccc(OC(F)(F)F)cc2)cc1-c1ccc(F)cc1`, the half-maximal effective concentration (EC50) is > 200 µM.

`Cn1cc(-c2c[nH]c(=O)cc2NCc2ccccn2)cn1`: the EC50 result is “in the range around 125 µM”.

As for `CN(Cc1ccccc1)c1cc(=O)n(-c2ccc(OC(F)(F)F)cc2)cc1-c1cnn(C)c1`, the EC50 is < 50 µM.

For `O=c1c2c(ccn2C2CC2)c(-c2cn[nH]c2)cn1-c1ccc(OC(F)(F)F)cc1`, the EC50 is < 50 µM.
